{
  "source": "paper PMC13289212",
  "about": "“HIVIL: A human in vitro inflammatory liver model recapitulates immune-associated drug effects with high predictivity” (NAM journal, 2025)",
  "key": {"[1]": {"test_system": "IL-6", "test": "IL-6 ELISA in HIVIL (iKCs co-cultured with iHeps, LPS, 48 hr)", "format": "cell-based, human", "conditions": "HIVIL; for IL-6 response: result in words", "from_the_text": "(§1) Human iPSC cell line iPS (IMR90)-4 was purchased from WiCell Research Institute (Madison, WI), and maintained with a feeder-free method according to the instruction from […] Technologies (Vancouver, BC, Canada). The protocol of differentiation towards iKCs and iHeps as described previously with slight modification ([Tasnim et al., 2019]; [Cai et al., 2012]), respectively. […] More details are provided in Supplementary Methods. After differentiation, iKCs was harvested using 0.05 % trypsin-EDTA (Gibco, Waltham, Massachusetts, USA), while iHeps were dissociated with TrypLE^TM (Gibco). iHep suspension was further filtered through a 40 µm cell strainer to remove extracellular matrix clumps. Cell suspension was centrifuged at 1000 rpm for 5 min. For co-culture set up, tissue culture plates were coated with Rat tail collagen I (Gibco) diluted 100-fold in 0.02 N acetic acid, and incubated at 37 °C for 1 h and washed 3 times with PBS. According to the protocol optimized by [Tasnim et al. (2019)], iKCs was firstly seeded at a density of 14,000 per well on 96-well plate with Advanced DMEM (plus supplements) containing 5 % FBS. On the following day, iHeps were added at a density of 35,000 per well in Williams’ Medium E (plus supplements) (iHep: iKCs ratio = 2.5: 1). This reflects the physiological ratio of these cells in vivo under inflammatory conditions ([Tasnim et al., 2021]). Fresh media containing drugs was applied to co-cultures the next day. 50,000 cells were seeded to establish iHeps monoculture. THP-1 cells were kindly obtained from Dr. Eliza Fong and cultured as described by [Zeng et al. (2015)]. Details provided in Supplementary Methods.\n(§2) Stock solutions of drugs were prepared in dimethyl sulfoxide (DMSO) and dissolved in medium prior to use. […] For these two drugs, the highest DMSO concentration was 1 %. Supernatant was collected at 48 hr for measurement of cytokines, and remaining cells were subjected to viability assay prior to lysis for RNA extraction.\n(§3) Enzyme-linked immunosorbent assay (ELISA) for measurement of cytokines: Interleukin-6 (IL-6), interleukin-10 (IL-10) and tumor necrosis factor alpha (TNFα) levels in the media were measured using the corresponding human-based ELISA kits (Abcam, Cambridge, United Kingdom) according to manufacturer’s instructions. The cytokine production from dosed cells was normalized with the viability value from the same well. The normalized cytokine level upon drug treatments was further presented as percentage of DMSO+LPS. […] This normalization approach has been used in previous studies (Rose et al. 2016)."}, "[2]": {"test_system": "TNFα", "test": "TNFα ELISA in HIVIL (iKCs co-cultured with iHeps, LPS, 48 hr)", "format": "cell-based, human", "from_the_text": "as §1, §2, §3"}, "[3]": {"test_system": "HIVIL (iKCs co-cultured with iHeps)", "test": "AlamarBlue cell viability in HIVIL", "protocol": "as §2"}, "[4]": {"test_system": "IL-6", "test": "IL-6 production of iKC mono-culture", "format": "cell-based, human", "conditions": "result in words", "protocol": "(§4) Enzyme-linked immunosorbent assay (ELISA) for measurement of cytokines: Interleukin-6 (IL-6), interleukin-10 (IL-10) and tumor necrosis factor alpha (TNFα) levels in the media were measured using the corresponding human-based ELISA kits (Abcam, Cambridge, United Kingdom) according to manufacturer’s instructions. The cytokine production from dosed cells was normalized with the viability value from the same well. The normalized cytokine level upon drug treatments was further presented as percentage of DMSO+LPS. Normalization to viability per well ensures that any changes in cytokines are not due to changes in cell numbers upon drug treatment and normalization to DMSO+LPS allows better comparison between different batches of experiments. This normalization approach has been used in previous studies (Rose et al. 2016)."}, "[5]": {"conditions": "Cammett et al. 2009, Mendes et al. 2014, cited from earlier work"}, "[6]": {"test_system": "TNFα", "conditions": "ref Shaw et al. 2010; Zou et al. 2009; Bekker et al. 2012; Gandhi et al. 2013; Heidari et al. 2019; cited from earlier work"}, "[7]": {"conditions": "FDA-labeling information; ref Chen et al. 2016; cited from earlier work"}, "[8]": {"conditions": "binary classification by human hepatotoxicity; ref Thakkar et al. 2020; cited from earlier work"}, "[9]": {"test_system": "iKCs mono-culture", "test": "Cell viability of iKCs mono-culture", "set-up": "dose or concentration left out as unconfirmed", "quoted_text": "(§5) Cell viability assays: Cell viability was examined with AlamarBlue^TM cell viability assay (Thermo Fisher Scientific Inc.) according to manufacturer’s instructions. Briefly, cells were exposed to AlamarBlue^TM working solution, which was diluted 10-fold using PBS containing 2 mg/mL of glucose, for 1 hour. Color change in the solution was measured using fluorescence (Ex: 530nm, Em: 590nm) in Tecan Microplate Reader M1000 PRO. The viability of dosed cells was presented as percentage of the corresponding vehicle control."}, "[10]": {"test_system": "iHeps", "test": "RNA-Seq of iHeps from mono-culture and HIVIL", "format": "cell-based, human", "conditions": "regardless of culture conditions, result in words", "from_the_text": "Subsequent analyses compared gene fold-changes of treated samples against their respective vehicle controls: \"m\" and \"c\" indicate mono- and co-culture, and \"–\" and \"+\" represent the absence or presence of LPS. […] However, this is only applicable for co-cultures where downstream effects can be traced back to cytokine changes, and not in monocultures where significant upstream cytokine changes are not observed.\nRNA extraction was done using TRIzol and analyzed on a Tapestation 4200 to determine RNA Integrity Number (RIN). Only samples with RIN > 8 were sequenced. Illumina Stranded mRNA multiplexing was done with unique 96 dual indices, and all samples sequenced on the same lane of NovaSeq 6000 S4 flowcell. Data normalization was performed using DESeq2 v1.32.0 ([Love et al., 2014]) on the R programming language v4.1.0 ([R Core Team, 2021]; [R Team, 2021]). Gene enrichment analysis was done with fgsea v1.18 ([Korotkevich et al., 2021]) with gene sets downloaded from MSigDB and KEGG pathway visualization done via pathview v1.32 ([Kanehisa et al., 2021]; [Luo and Brouwer, 2013]). Other plots were produced using ggplot2 v3.3.5 and scatterplot3d v0.3-41 ([Ligges and Maechler, 2003]). The RNA-Seq dataset has been deposited in NCBI under accession number GSE189320.\nRNA seq and analysis: After 48 hr of drug treatment, iHeps cultured in mono-culture and HIVIL were both subjected to TrypLE^TM dissociation, and subsequently sorted with magnetic separation with the CD163 Microbead kit (Miltenyi Biotec, Bergisch Gladbach, Germany) to obtain only iHeps. Flow-through was collected, pelleted down and snap-frozen in liquid nitrogen, before storage at -80°C. Lysates were sent to the Genome Research Informatics and Data Science platform (Agency for Science, Technology and Research, Singapore). RNA extraction was done using TRIzol and analyzed on a Tapestation 4200 to determine RNA Integrity Number (RIN). All sequenced samples included for further analysis had RIN > 8. Illumina Stranded mRNA multiplexing was done with unique 96 dual indices, and all samples sequenced on the same lane of NovaSeq 6000 S4 flowcell. Sequenced reads were trimmed for adaptor sequence using Trim Galore v0.6.4, then aligned to human genome build GRCh38 using STAR_2.6.1d. Aligned reads are summarized into count matrices using featureCounts v1.6.4 with the gene annotation file from GENCODE v37.\nData normalization was performed using DESeq2 v1.32.0 (Love et al. 2014) on the R programming language v4.1.0 (Core Team 2021; Team 2021). Gene enrichment analysis was done with fgsea v1.18 (Korotkevich et al. 2021) with gene sets downloaded from MSigDB and KEGG pathway visualization done via pathview v1.32 (Kanehisa et al. 2021; Luo and Brouwer 2013). Other plots were produced using ggplot2 v3.3.5 and scatterplot3d v0.3-41 (Ligges and Maechler 2003). The RNA-Seq dataset has been deposited in NCBI under accession number GSE189320."}, "[11]": {"test_system": "IL-6", "test": "IL-6 ELISA in iPSC(F4)-derived HIVIL", "format": "cell-based, human", "conditions": "result in words", "protocol": "as §4"}, "[12]": {"test_system": "iPSC(F4)-derived HIVIL", "test": "Cell viability in iPSC(F4)-derived HIVIL", "format": "cell-based, human", "conditions": "result in words", "quoted_text": "as §5"}, "[13]": {"test_system": "NF-κB", "set-up": "method as in Wahl et al. 1998", "conditions": "ref Wahl et al. 1998; cited from earlier work"}, "[14]": {"test_system": "IL-6", "set-up": "method as in ref Hassan et al. 2016; Giustarini et al. 2019; Higuchi et al. 2012; Dik et al. 2018", "conditions": "ref Hassan et al. 2016; Giustarini et al. 2019; Higuchi et al. 2012; Dik et al. 2018; cited from earlier work"}, "[15]": {"conditions": "ref in each cell: Ademisoye et al. 2018, Xu et al. 2008, Agabeyoglu and Incecayir 2009, Rojanasthien et al. 2007, Reunanen et al. 1992, Li et al. 2002, Hong-mei et al. 2013, Bareggi et al. 1987, Jiang et al. 2008"}},
  "note": "Like-named read-outs stand apart in the source and are kept apart here.",
  "data": [
    {"smiles": "CN(C)CCCN1c2ccccc2Sc2ccc(Cl)cc21", "note": "[CPZ, Chlorpromazine]", "values": [
      {"measurement": "group by drug-dependent IL-6 production", "setting": "[1]", "value": "dose-dependent inhibition"},
      {"measurement": "IC50", "setting": "[1]; Homo sapiens, LPS, 48 hr", "value": 12.9, "unit": "µM"},
      {"measurement": "dose at which TNFα induction was observed", "setting": "[2]", "value": 25, "unit": "µM"},
      {"measurement": "IC50", "setting": "[3]; Homo sapiens, 48 h, read-out: IC50: viability", "value": 34.4, "unit": "µM"},
      {"measurement": "IL-6 / cytokine production in iKC mono-culture", "setting": "[4]", "value": "higher than that in the HIVIL model"},
      {"measurement": "Cmax", "setting": "[5]; [15]", "value": 800, "unit": "nM"},
      {"measurement": "Cmax", "setting": "[5]; ref in each cell: Xu et al. 2008", "value": 800, "unit": "nM"},
      {"measurement": "Reported in-vivo (murine) responses: TNFα", "setting": "[6]", "value": "TNFα↑ (Gandhi et al. 2013)"},
      {"measurement": "DILIrank", "setting": "[7]", "value": "less"},
      {"measurement": "DILIst", "setting": "[8]", "value": 1},
      {"measurement": "decrease in viability in iKCs", "setting": "[9]", "value": 50, "unit": "%"}
    ]},
    {"smiles": "C[C@H]1COc2c(N3CCN(C)CC3)c(F)cc3c(=O)c(C(=O)O)cn1c23", "note": "[LVX, levofloxacin]", "values": [
      {"measurement": "group by drug-dependent IL-6 production", "setting": "[1]", "value": "no dose-dependent changes"},
      {"measurement": "IL-6 response", "setting": "[1]", "value": "did not cause any change"},
      {"measurement": "change in cell viability", "setting": "[3]; HIVIL, result in words", "value": "did not cause any change"},
      {"measurement": "viability profiles among iHeps, iKCs and HIVIL", "setting": "[3]; comparison of mono-cultures and co-culture", "value": "similar"},
      {"measurement": "IL-6 transcription in iHeps", "setting": "[10]", "value": "remained unchanged"},
      {"measurement": "IL-6 production", "setting": "[11]", "value": "did not influence"},
      {"measurement": "cell viability", "setting": "[12]", "value": "did not influence"},
      {"measurement": "DILIrank", "setting": "[7]", "value": "most"},
      {"measurement": "DILIst", "setting": "[8]", "value": 1}
    ]},
    {"smiles": "O=C(O)c1cc(/N=N/c2ccc(S(=O)(=O)Nc3ccccn3)cc2)ccc1O", "note": "[SSZ, sulfasalazine]", "values": [
      {"measurement": "group by drug-dependent IL-6 production", "setting": "[1]", "value": "no dose-dependent changes"},
      {"measurement": "IL-6 response", "setting": "[1]", "value": "no change"},
      {"measurement": "Cmax", "setting": "[5]; [15]", "value": 17600, "unit": "nM"},
      {"measurement": "Reported human responses: NF-κB", "setting": "[13]", "value": "NF-κB inhibitor (Wahl et al. 1998)"},
      {"measurement": "Reported in-vivo (murine) responses: IL-6", "setting": "[14]", "value": "IL-6↓ (Dik et al. 2018)"}
    ]}
  ]
}
